From patent US20130296316A1, “Antiparasitic Agents Based On mTOR Inhibitors” (priority 2010, published 2013)
Read-outs that look alike come from different tables or passages of the source. One block for each molecule: values may come before it.

Columns and labels:
[1] = test system: L. major promastigotes; assay: Potency assessment against Leishmania major promastigotes (growth, cell counting); assay type: cell-based; settings: for EC50 / IC50: Leishmania major; for EC50: promastigotes, average of three replicates, read-out: Effective concentration (EC50) L. major; for activity against L. major promastigotes in words: highest concentration tested; for IC50: Table 2B, read-out: L. major Promastigote IC50, growth inhibition
[2] = test system: L. donovani axenic amastigotes; assay: Potency assessment against Leishmania donovani axenic amastigotes (growth, cell counting); assay type: cell-based; settings: for EC50 / IC50: Leishmania donovani; for EC50: axenic amastigotes, average of three replicates, read-out: Effective concentration (EC50) L. donovani axenic amastigotes; for activity against L. donovani axenic amastigotes in words: highest concentration tested; for IC50: Table 2B, read-out: L. donovani Axenic Amastigote IC50, growth inhibition
[3] = test system: T. cruzi trypomastigotes; assay: T. cruzi intracellular replication in NIH/3T3 host cells (β-galactosidase, CPRG); assay type: cell-based, Trypanosoma cruzi; settings: Trypanosoma cruzi; for EC50: NIH3T3, 96 h, trypomastigotes with 3T3 host cells, four days, three replicates within ±10.2%, read-out: Effective concentration (EC50) T. cruzi; for IC50: NIH3T3, Table 2B, read-out: T. Cruzi IC50, growth inhibition
[4] = test system: T. brucei brucei Lister 427; assay: Potency assessment against T. brucei brucei Lister 427 bloodstream form (AlamarBlue, 72 h); assay type: cell-based, Trypanosoma brucei brucei; settings: Trypanosoma brucei
[5] = test system: human cells; settings: literature, Table 1; read-out: Inhibition of Cell Growth EC50; cited from earlier work
[6] = test system: L. donovani promastigotes; assay: Potency assessment against Leishmania donovani promastigotes (growth, cell counting); assay type: cell-based; settings: Leishmania donovani; for EC50: promastigotes, average of three replicates, read-out: Effective concentration (EC50) L. donovani promastigotes; for IC50: Table 2B, read-out: L. donovani Promastigote IC50, growth inhibition
[7] = test system: T. b. rhodesiense; assay: Potency assessment against T. b. rhodesiense EATRO3 bloodstream form (AlamarBlue, 72 h); assay type: cell-based, Trypanosoma brucei rhodesiense; settings: Trypanosoma brucei, RHODESIENSE; for IC50: Table 2B, read-out: T. brucei rhod IC50, growth inhibition
[8] = test system: T. brucei brucei Lister 427 bloodstream cells; assay: Morphological and cell cycle alterations in T. brucei (flow cytometry); assay type: cell-based, Trypanosoma brucei brucei; settings: 16 h, WYE-354 2 μM; for effect on cellular DNA content / cell cycle, T. b. brucei: PI-103 1 μM, Pp242 2 μM, NVP-BEZ235 100 nM
Method: Flow cytometry was used to assess cell size and DNA content, to reveal a G1 arrest and inhibition of protein synthesis or G2 arrest and multinucleated cells. […]. After permeabilization with […], saponin (0.5 mg/mL final concentration), the culture was RNAse treated for 30 minutes (10 μg/mL final concentration) and stained with 20 μg/mL propidium iodide immediately before its acquisition in a FACscan cytometer. Cells incubated with equivalent concentration of drug solvent (DMSO) were included in each experiment as control population.

[9] = test system: L. major promastigotes; assay: Cell size and DNA content analysis in Leishmania (flow cytometry); assay type: cell-based, Leishmania major
Method: L. major log phase promastigotes were inoculated at a concentration of 10^6 cells/ml into media with compounds as indicated, and incubated overnight with varying drug concentrations to assess cell size and DNA content. For cell size, forward scatter of live promastigotes was measured by a FACS flow cytometer (Becton Dickinson), utilizing dye exclusion with 5 μg/ml propidium iodide (PI) to gate for live cells. DNA content was determined by flow cytometry using fixed and permeabilized L. major stained with PI as previously described, but reducing the incubation time with PI and RNase A from 1 hour to 30 minutes. Histogram analysis was performed using CellQuest 3.1 software (BD Bioscience).

[10] = test system: Leishmania; assay: Leishmania growth inhibition summarised across both species and stages; assay type: cell-based; settings: range over L. major and L. donovani, promastigotes and amastigotes
[11] = target: mTOR (Homo sapiens, UniProt P42345); settings: cited from earlier work; for mTOR IC50 in words: mammalian cells / literature
[12] = target: PI3K p110α (Homo sapiens, UniProt P42336); settings: human enzyme, Table 1; cited from earlier work
PI3K p110α, sequence (P42336 whole entry): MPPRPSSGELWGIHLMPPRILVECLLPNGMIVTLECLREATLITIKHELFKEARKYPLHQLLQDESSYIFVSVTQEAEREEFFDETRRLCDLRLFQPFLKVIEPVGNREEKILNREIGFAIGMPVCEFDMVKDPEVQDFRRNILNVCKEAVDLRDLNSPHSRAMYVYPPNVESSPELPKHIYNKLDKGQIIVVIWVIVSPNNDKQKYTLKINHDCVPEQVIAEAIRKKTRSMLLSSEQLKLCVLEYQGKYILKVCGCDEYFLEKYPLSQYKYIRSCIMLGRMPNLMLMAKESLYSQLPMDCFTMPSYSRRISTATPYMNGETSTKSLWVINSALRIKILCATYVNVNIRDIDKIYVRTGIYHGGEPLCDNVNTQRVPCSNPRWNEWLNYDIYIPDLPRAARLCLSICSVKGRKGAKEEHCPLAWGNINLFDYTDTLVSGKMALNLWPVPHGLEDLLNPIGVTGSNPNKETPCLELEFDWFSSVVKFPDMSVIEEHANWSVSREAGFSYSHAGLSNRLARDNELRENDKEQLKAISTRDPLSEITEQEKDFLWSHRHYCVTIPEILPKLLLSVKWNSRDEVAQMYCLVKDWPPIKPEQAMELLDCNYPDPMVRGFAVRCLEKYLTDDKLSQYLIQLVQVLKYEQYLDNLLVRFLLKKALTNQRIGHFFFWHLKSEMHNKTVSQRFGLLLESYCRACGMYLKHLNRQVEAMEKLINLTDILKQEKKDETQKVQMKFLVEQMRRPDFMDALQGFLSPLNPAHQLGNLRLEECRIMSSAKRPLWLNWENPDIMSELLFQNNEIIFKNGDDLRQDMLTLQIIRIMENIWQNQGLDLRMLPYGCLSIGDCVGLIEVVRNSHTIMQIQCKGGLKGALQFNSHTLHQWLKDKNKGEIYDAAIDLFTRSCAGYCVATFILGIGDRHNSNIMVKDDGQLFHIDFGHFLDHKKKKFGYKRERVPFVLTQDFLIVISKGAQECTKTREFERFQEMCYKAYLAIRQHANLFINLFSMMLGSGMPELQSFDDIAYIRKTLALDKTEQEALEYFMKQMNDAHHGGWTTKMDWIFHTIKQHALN
PI3K p110α, sequence (P27986 whole entry partner): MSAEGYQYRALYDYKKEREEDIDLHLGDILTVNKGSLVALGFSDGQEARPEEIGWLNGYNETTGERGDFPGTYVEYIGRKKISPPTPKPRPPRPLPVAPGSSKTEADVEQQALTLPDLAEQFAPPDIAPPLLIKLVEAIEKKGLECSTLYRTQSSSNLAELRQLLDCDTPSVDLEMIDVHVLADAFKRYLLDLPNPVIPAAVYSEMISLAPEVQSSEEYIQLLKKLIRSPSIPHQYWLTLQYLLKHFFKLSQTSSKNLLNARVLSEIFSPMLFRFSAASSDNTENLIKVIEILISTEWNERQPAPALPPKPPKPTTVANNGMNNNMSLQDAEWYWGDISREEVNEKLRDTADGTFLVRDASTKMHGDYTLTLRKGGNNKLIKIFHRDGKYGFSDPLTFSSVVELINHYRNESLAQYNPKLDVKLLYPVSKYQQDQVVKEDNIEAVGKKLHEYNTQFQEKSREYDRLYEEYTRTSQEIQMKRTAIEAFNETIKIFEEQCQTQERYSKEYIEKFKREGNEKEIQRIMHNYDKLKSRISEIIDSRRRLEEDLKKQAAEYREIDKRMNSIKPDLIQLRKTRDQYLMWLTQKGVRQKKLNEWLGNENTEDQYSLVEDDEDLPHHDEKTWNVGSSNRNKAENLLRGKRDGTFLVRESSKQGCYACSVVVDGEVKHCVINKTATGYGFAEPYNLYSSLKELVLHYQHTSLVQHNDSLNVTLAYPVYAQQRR

[13] = test system: T. brucei gambiense, ELIANE strain; assay: Potency assessment against T. b. gambiense ELIANE bloodstream form; assay type: cell-based, Trypanosoma brucei gambiense; settings: Trypanosoma brucei, GAMBIENSE; Table 3; read-out: EC50 T. b. gambiense ELIANE
[14] = test system: T. b. brucei Lister 927; assay: Potency assessment against T. b. brucei Lister 927; assay type: cell-based, Trypanosoma brucei brucei; settings: Trypanosoma brucei; Table 3
Method: Assays were performed using the strain of T. brucei brucei Lister 427 adapted to the laboratory, and the human-infective strain T. b. rhodesiense (EATRO3 ETat1.2 TREU164 [37]). Both strains were grown and tested as bloodstream forms. To establish the EC50, cultures of Trypanosoma brucei and T. b. rhodesiense were treated with two-fold increasing concentrations of compounds (with similar DMSO increasing concentration as control). Cell populations were measured at 72 hours with an Infinite F200 microplate reader (Tecan Austria GmbH, Austria); the determination of cell viability was carried out by the established colorimetric technique AlamarBlue® with modifications, a 96-well plate format spectrophotometric assay which measures the ability of living cells to reduce resazurin [38,39]. Data obtained with T. b. brucei Lister 427 were confirmed by manual counting in a Neubauer chamber for a direct microscopic examination to rule out multinucleated phenotypes that could mask the colorimetric assays, as well as the subtraction of solvent background to dismiss a potential solvent-derived fluorescence. Pentamidine was used as drug control for potency comparison, and T. b. brucei Lister 927 strain was included in our experiments to evaluate the adaptation to medium for the different strains as a variable condition.

[15] = bloodstream form, average of three replicates, read-out: Effective concentration (EC50) T. b. brucei
[16] = bloodstream form, average of three replicates, read-out: Effective concentration (EC50) T. b. rhodesiense
[17] = overnight, PI-103 4 μM, WYE-354 25 μM, NVP-BEZ235 0.5 μM (EC60-EC90)

Compound: COc1ccc(-c2ccc3c(N4CCOCC4)nc(N4C[C@@H](C)O[C@@H](C)C4)nc3n2)cc1CO [Ku-0063794]
EC50 [1]: > 25 µM | activity against L. major promastigotes in words [1]: inactive | EC50 [2]: > 5 µM | activity against L. donovani axenic amastigotes in words [2]: inactive | EC50 [3]: > 10 µM | EC50 [4, 15]: 0.89 ± 0.14 µM | EC50 [5]: 0.03 µM

Compound: c1ccc(-c2nc(N3CCCCC3)c3oc4ncccc4c3n2)cc1 [NEU-0000291]
IC50 [1]: > 10 µM | IC50 [2]: > 10 µM | IC50 [3]: 12 µM

Compound: Oc1cccc(-c2nc(N3CCOCC3)c3oc4ncccc4c3n2)c1 [PI-103]
EC50 [1]: 0.32 ± 0.16 µM | EC50 [6]: 1.05 ± 0.28 µM | EC50 [2]: 0.62 ± 0.41 µM | EC50 [3]: > 25 µM | EC50 [4, 15]: 0.214 ± 0.036 µM | EC50 ([4]; read-out: activity against T. b. brucei cultures): 0.2 µM | EC50 [7, 16]: 0.105 ± 0.01 µM | EC50 ([7]; read-out: activity against T. b. rhodesiense cultures): 0.1 µM | effect on cellular DNA content / cell cycle, T. b. brucei [8]: G1 arrest | effect on cell size and DNA content, L. major promastigotes [9, 17]: G1 arrest and a decrease in cell size | EC50 ([10]; read-out: inhibition of Leishmania across both species and stages): 0.32 to 1.05 µM | EC50 [5]: 0.5 µM

Compound: CCOCCNc1nc(-c2cccc(O)c2)nc2c1oc1ncccc12 [NEU-0000362]
IC50 [3]: > 50 µM | IC50 [7]: > 1 µM

Compound: O=c1cc(N2CCOCC2)nc2c3ccccc3ccn12 [Compound 401, 2-(morpholin-1-yl)pyrimido[2,1-alpha]isoquinolin-4-one]
EC50 [1]: > 25 µM | activity against L. major promastigotes in words [1]: inactive | EC50 [2]: > 5 µM | activity against L. donovani axenic amastigotes in words [2]: inactive | EC50 [3]: > 10 µM | EC50 [4, 15]: > 10 µM | EC50 [5]: 1 µM | mTOR IC50 in words [11]: low micromolar concentrations | IC50 [12]: > 100 µM

IC50 [1]: 6.54 µM | IC50 [6]: 8.06 µM | IC50 [2]: 2.43 µM
Compound: c1ccc(CN2CCC(n3ncc4c(N5CCOCC5)nc(-c5ccncc5)nc43)CC2)cc1 [NEU-00000232]
IC50 [7]: 3.05 µM

EC50 ([4]; Table 3, read-out: EC50 T. b. brucei 427): 0.0042 ± 0.0002 µM | EC50 [13]: 0.0025 ± 0.0005 µM
Compound: N=C(N)c1ccc(OCCCCCOc2ccc(C(=N)N)cc2)cc1 [Pentamidine]
EC50 ([7]; Table 3, read-out: EC50 T. b. rhodesiense EATRO3): 0.0037 ± 0.0004 µM | EC50 [14]: 0.0303 ± 0.0104 µM

Compound: CCOCCNc1nc(-c2cccc(OC)c2)nc2c1oc1ncccc12 [NEU-0000361]
IC50 [3]: > 50 µM | IC50 [7]: > 5 µM

Compound: CCOc1ccccc1-c1nc(N2CCOCC2)c2oc3ncccc3c2n1 [NEU-0000363]
IC50 [3]: > 50 µM | IC50 [7]: > 5 µM

Compound: CCOCCNc1nc(-c2ccccc2)nc2c1oc1ncccc12 [NEU-0000292]
IC50 [1]: 4 µM | IC50 [2]: 12.5 µM | IC50 [3]: > 50 µM

Compound: CC(C)n1nc(-c2cc3cc(O)ccc3[nH]2)c2c(N)ncnc21 [Pp242]
effect on cellular DNA content / cell cycle, T. b. brucei [8]: G1 arrest | effect on cell size and DNA content, L. major promastigotes ([9]; higher concentrations of Pp242): G2 arrest and increase in cell size | effect on cell size and DNA content, L. major promastigotes ([9]; lower concentrations of Pp242): decrease in cell size and a G1 arrest

IC50 [1]: 5.49 µM | IC50 [6]: 6.34 µM | IC50 [2]: 6.9 µM
Compound: CC(C)(C)OC(=O)Nc1ccc(-c2nc(N3CCOCC3)c3cnn(C4CCN(Cc5ccccc5)CC4)c3n2)cc1 [NEU-00000234]
IC50 [7]: 2.19 µM

Compound: COC(=O)Nc1ccc(-c2nc(N3CCOCC3)c3cnn(C4CCN(C(=O)OC)CC4)c3n2)cc1 [WYE-354]
EC50 [1]: 4.1 ± 0.3 µM | EC50 [6]: 5.95 ± 0.84 µM | EC50 [2]: 6.1 ± 1.73 µM | EC50 [3]: > 10 µM | EC50 [4, 15]: 0.58 ± 0.26 µM | EC50 [7, 16]: 0.78 ± 0.08 µM | effect on cellular DNA content / cell cycle, T. b. brucei [8]: no significant variations in cell cycle | effect on cell size, T. b. brucei [8]: small but noticeable reduction in cell size | effect on cell size and DNA content, L. major promastigotes [9, 17]: G1 arrest and a decrease in cell size | EC50 ([10]; read-out: activity against Leishmania across both species and stages): 4 to 6 µM | EC50 [5]: 0.03 µM | IC50 ([11]; human enzyme, Table 1): 0.004 µM | mTOR IC50 in words [11]: low nanomolar | IC50 [12]: 1 µM

Compound: c1ccc(-c2nc(N3CCOCC3)c3oc4ncccc4c3n2)cc1 [NEU-0000290]
IC50 [1]: > 20 µM | IC50 [2]: > 20 µM | IC50 [3]: 1.5 µM

Compound: O=c1cc(N2CCNCC2)oc2c(-c3ccccc3)cccc12 [LY303511, 2-piperazinyl-8-phenyl-4H-1-benzopyran-4-one]
EC50 [1]: > 25 µM | activity against L. major promastigotes in words [1]: inactive | EC50 [2]: > 5 µM | activity against L. donovani axenic amastigotes in words [2]: inactive | EC50 [3]: > 10 µM | EC50 [4, 15]: > 2 µM

IC50 [1]: 2.78 µM | IC50 [6]: 8.01 µM | IC50 [2]: 3.02 µM
Compound: Oc1ccccc1-c1nc(N2CCOCC2)c2cnn(C3CCN(Cc4ccccc4)CC3)c2n1 [NEU-00000231]
IC50 [7]: 2.23 µM

IC50 [1]: < 25 µM | IC50 [6]: ~25 µM
Compound: Nc1ccc(-c2nc(N3CCOCC3)c3cnn(C4CCN(Cc5ccccc5)CC4)c3n2)cc1 [NEU-00000233]
IC50 [7]: 3.7 µM

Compound: CCOc1ccccc1-c1nc(N2CCCCC2)c2oc3ncccc3c2n1 [NEU-0000364]
IC50 [3]: > 50 µM | IC50 [7]: > 5 µM

Compound: O=c1cc(N2CCOCC2)oc2c(-c3ccccc3)cccc12 [LY294002, 2-(4-morpholinyl)-8-phenyl-4H-1-benzopyran-4-one]
EC50 [1]: > 25 µM | activity against L. major promastigotes in words [1]: inactive | EC50 [2]: > 5 µM | activity against L. donovani axenic amastigotes in words [2]: inactive | EC50 [3]: > 50 µM | EC50 [4, 15]: > 2 µM

Compound: COc1ccc(-c2nc(N3CCOCC3)c3oc4ncccc4c3n2)cc1 [NEU-0000365]
IC50 [3]: > 50 µM | IC50 [7]: > 5 µM

Compound: COc1cccc(-c2nc(N3CCOCC3)c3oc4ncccc4c3n2)c1 [NEU-0000288]
IC50 [1]: 4.07 µM | IC50 [2]: ~20 µM | IC50 [3]: 3.7 µM

Compound: COc1cccc(-c2nc(N3CCCCC3)c3oc4ncccc4c3n2)c1 [NEU-0000289]
IC50 [1]: 7.65 µM | IC50 [2]: ~20 µM | IC50 [3]: 3.9 µM
